Test results as given in patent publication US4305852A, “Polypeptide compositions” (American Home Products Corporation, priority 1980, dated 1981).
Where a SMILES comes first, the peptide text is derived from it. Where no end group is shown, it is not given here. [ ]: non-standard residue; d: D form.

Legend:
T lymphocytes = assay: T lymphocyte proliferation, 3H-thymidine incorporation; type: cell-based, male CBA/J or NZB mice; conditions: 48 h culture
Experimental: T lymphocytes are isolated from spleens of male CBA/J or NZB mice. Cell homogenates are prepared in Hank's balanced salt solution (HBSS). After removal of larger particles and repeated washing of the cells in HBSS they are suspended in minimum essential medium (MEM) and passed through a glass wool column to remove macrophages. The cells are then incubated on a nylon wool column at 37° C., 95% air, 5% CO2, for 45 minutes. The non-adherant T lymphocytes are then eluted from the column, counted, and adjusted to 20×10^6 cells/ml. 50 μl of cells are cultured (37° C., 95% air, 5% CO2) with compound, for 48 hours before the addition of 0.5 μCi. of 3H-thymidine for the last 16 hours of culture. The total volume of the culture system is 200 μl. The cells are then harvested on a multiple automatic sample harvester (Mash II), the glass fiber filter disks placed in 10 ml. of xylene base scintillation fluid, and counted for 1 minute in a liquid scintillation counter. Results are reported as CPM±SE.

[1] = test system: autologous rosette-forming cells; conditions: in vivo, athymic mice; cited from earlier work
cells of the B lineage = conditions: in vitro; cited from earlier work
murine prothymocytes = conditions: in vitro; cited from earlier work

Row | Molecule | CPM ± SE (3H-thymidine incorporation) (T lymphocytes; 0.00075 μg/culture, second experiment (blank 19275 ± 1298)) [CPM] | CPM ± SE (3H-thymidine incorporation) (T lymphocytes; 0.0015 μg/culture, first experiment (blank 9876 ± 951)) [CPM] | CPM ± SE (3H-thymidine incorporation) (T lymphocytes; 0.0015 μg/culture, second experiment (blank 19275 ± 1298)) [CPM] | CPM ± SE (3H-thymidine incorporation) (T lymphocytes; 0.006 μg/culture, first experiment (blank 9876 ± 951)) [CPM] | CPM ± SE (3H-thymidine incorporation) (T lymphocytes; 0.006 μg/culture, second experiment (blank 19275 ± 1298)) [CPM] | CPM ± SE (3H-thymidine incorporation) (T lymphocytes; 0.025 μg/culture, first experiment (blank 9876 ± 951)) [CPM] | CPM ± SE (3H-thymidine incorporation) (T lymphocytes; 0.025 μg/culture, second experiment (blank 19275 ± 1298)) [CPM] | CPM ± SE (3H-thymidine incorporation) (T lymphocytes; 0.1 μg/culture, first experiment (blank 9876 ± 951)) [CPM] | numbers of autologous rosette-forming cells in spleens [1] | differentiative induction of cells of the B lineage (cells of the B lineage) | differentiation of murine prothymocytes to thymocytes (murine prothymocytes)
1 | CC(=O)O.CC(=O)O.CC(=O)O.CC(C)[C@H](NC(=O)[C@H](CC(=O)O)NC(=O)[C@H](CCCCN)NC(=O)[C@@H](N)CCCNC(=N)N)C(=O)N[C@H](C)C(N)=O [Arg--Lys--Asp--Val--D--Ala--NH2, L-arginyl-L-lysyl-L-aspartyl-L-valyl-D-alaninamide triacetate] (H-RKDV[dA]-NH2) | 18983 ± 2651 | 20305 ± 2347 | 22966 | 18640 ± 1830 | 28559 ± 3663 | 30181 ± 3895 | 25515 ± 2486 | 21887 ± 3143 | – | – | –
2 | RKDVY [arginyl-lysyl-aspartyl-valyl-tyrosine] | – | – | – | – | – | – | – | – | reducing the high numbers of autologous rosette-forming cells | inhibited differentiative induction of cells of the B lineage | induced the differentiation of murine prothymocytes to thymocytes
